Experiments:
[1] = tested on: ABUTH; experiment: Post-emergence action against ABUTH; assay type: in vivo, Abutilon theophrasti; details: post-emergence, dosage 80 g/ha, visual assessment about 3 weeks after treatment vs untreated controls
Procedure: (§1) Seeds of monocotyledonous and dicotyledonous weed and crop plants are laid out in sandy loam soil in wood-fiber pots, covered with soil and cultivated in a greenhouse under good growth conditions. 2 to 3 weeks after sowing, the test plants are treated at the one-leaf stage. The compounds of the invention, formulated in the form of wettable powders (WP) or as emulsion concentrates (EC), are then sprayed onto the green parts of the plants in the form of an aqueous suspension or emulsion at a water application rate equating to […], with addition of 0.2% wetting agent. After the test plants have been left to stand in the greenhouse under optimal growth conditions for about 3 weeks, the action of the preparations is assessed visually in comparison to untreated controls (herbicidal action in percent (%): 100% activity=the plants have died, 0% activity=like control plants). […] At the same time, inventive compounds leave Gramineae crops such as barley, wheat, rye, millet/Sorghum, corn or rice virtually undamaged when applied post-emergence, even at high active ingredient dosages. In addition, some substances are also harmless to dicotyledonous crops such as soya, cotton, oilseed rape, sugar beet or potatoes. Some of the compounds according to the invention have high selectivity and are therefore suitable for controlling unwanted vegetation in agricultural crops by the post-emergence method. The data of Tables B18 to B34 below illustrate, in an exemplary manner, the […] herbicidal action of the compounds according to the invention, the herbicidal activity being stated in percent.

[2] = tested on: STEME; experiment: Post-emergence action against STEME; assay type: in vivo, Stellaria media; details: post-emergence, dosage 80 g/ha; for pest or weed control at 80 g/ha: Stellaria media, 504 h
Procedure: as §1

[3] = tested on: PHBPU; experiment: Post-emergence action against PHBPU; assay type: in vivo, Pharbitis purpurea; details: post-emergence, dosage 80 g/ha
Procedure: as §1

[4] = tested on: AMARE; experiment: Post-emergence action against AMARE; assay type: in vivo, Amaranthus retroflexus; details: post-emergence, dosage 80 g/ha, visual assessment about 3 weeks after treatment vs untreated controls; for pest or weed control at 80 g/ha: Amaranthus retroflexus, 504 h, read-out: Post-emergence action against AMARE (herbicidal action in percent)
Procedure: as §1

[5] = tested on: VERPE; experiment: Post-emergence action against VERPE; assay type: in vivo, Veronica persica; details: dosage 80 g/ha; for pest or weed control at 80 g/ha: Veronica persica, 504 h
Procedure: as §1

[6] = tested on: VERPE; experiment: Pre-emergence action against VERPE; assay type: in vivo, Veronica persica; details: Dosage 320 g/ha, pre-emergence; for pest or weed control at 320 g/ha: Veronica persica, 504 h
From the text: (§2) Seeds of monocotyledonous and dicotyledonous weed plants and crop plants are laid out in sandy loam soil in wood-fiber pots and covered with soil. The compounds of the invention, formulated in the form of wettable powders (WP) or as emulsion concentrates (EC), are then applied to the surface of the covering soil in the form of an aqueous suspension or emulsion at a water application rate equating to […], with addition of 0.2% wetting agent. After the treatment, the pots are placed in a greenhouse and kept under good growth conditions for the trial plants. The damage to the test plants is scored visually after a test period of 3 weeks by comparison with untreated controls (herbicidal activity in percent (%): 100% activity=the plants have died, 0% activity=like control plants).

[7] = tested on: MATIN; experiment: Pre-emergence action against MATIN; assay type: in vivo, Matricaria inodora; details: Dosage 320 g/ha, pre-emergence; for pest or weed control at 320 g/ha: Tripleurospermum inodorum, 504 h
From the text: as §2

[8] = tested on: ECHCG; experiment: Pre-emergence action against ECHCG; assay type: in vivo, Echinochloa crus-galli; details: pre-emergence, dosage 320 g/ha, scored visually after 3 weeks vs untreated controls
From the text: as §2

[9] = tested on: AVEFA; experiment: Pre-emergence action against AVEFA; assay type: in vivo, Avena fatua; details: dosage 320 g/ha, scored visually after 3 weeks vs untreated controls
From the text: as §2

[10] = tested on: STEME; experiment: Pre-emergence action against STEME; assay type: in vivo, Stellaria media; details: Dosage 320 g/ha, pre-emergence
From the text: as §2

[11] = tested on: AMARE; experiment: Pre-emergence action against AMARE; assay type: in vivo, Amaranthus retroflexus; details: pre-emergence, dosage 320 g/ha, scored visually after 3 weeks vs untreated controls; for pest or weed control at 320 g/ha: Amaranthus retroflexus, 504 h, read-out: Pre-emergence action against AMARE (herbicidal activity)
From the text: as §2

[12] = tested on: MATIN; experiment: Post-emergence action against MATIN; assay type: in vivo, Matricaria inodora; details: post-emergence, dosage 80 g/ha, visual assessment about 3 weeks after treatment vs untreated controls
Procedure: as §1

[13] = tested on: ABUTH; experiment: Pre-emergence action against ABUTH; assay type: in vivo, Abutilon theophrasti; details: pre-emergence, dosage 320 g/ha, scored visually after 3 weeks vs untreated controls
From the text: as §2

[14] = tested on: VIOTR; experiment: Pre-emergence action against VIOTR; assay type: in vivo, Viola tricolor; details: Dosage 320 g/ha, pre-emergence
From the text: as §2

[15] = tested on: ALOMY; experiment: Pre-emergence action against ALOMY; assay type: in vivo, Alopecurus myosuroides; details: dosage 320 g/ha; pre-emergence; scored visually after 3 weeks vs untreated controls; 100% = plants have died, 0% = like control plants
From the text: as §2

[16] = tested on: ECHCG; experiment: Post-emergence action against ECHCG; assay type: in vivo, Echinochloa crus-galli; details: post-emergence, dosage 80 g/ha, visual assessment about 3 weeks after treatment vs untreated controls
Procedure: as §1

[17] = tested on: VIOTR; experiment: Post-emergence action against VIOTR; assay type: in vivo, Viola tricolor; details: post-emergence, dosage 80 g/ha
Procedure: as §1

[18] = tested on: SETVI; experiment: Pre-emergence action against SETVI; assay type: in vivo, Setaria viridis; details: pre-emergence, dosage 320 g/ha, scored visually after 3 weeks vs untreated controls
From the text: as §2

Row | Compound | Post-emergence action against ABUTH (herbicidal action in percent) [1] | Post-emergence action against STEME [2] | Post-emergence action against PHBPU [3] | Post-emergence action against AMARE (herbicidal action in percent) [4] | Pre-emergence action against MATIN [7] | Pre-emergence action against STEME [10] | Pre-emergence action against AMARE (herbicidal activity) [11] | Post-emergence action against MATIN (herbicidal action in percent) [12] | Pre-emergence action against VERPE [6] | Pre-emergence action against ABUTH (herbicidal activity) [13] | Pre-emergence action against VIOTR [14] | further results
1 | CCn1nnnc1NC(=O)c1ccc(C(F)(F)F)c(C(=O)C2CCCC2)c1Cl [2-154] | 90% | 90 | 90 | 100% | – | – | – | – | – | – | – | –
2 | CC(=O)c1c(C(F)(F)F)ccc(C(=O)Nc2nnnn2C)c1C [1-14] | – | – | – | – | – | – | – | – | – | – | – | pest or weed control at 80 g/ha ([1]; Abutilon theophrasti, 504 h, read-out: Post-emergence action against ABUTH (herbicidal action in percent)): 90%; pest or weed control at 80 g/ha [4]: 80%; pest or weed control at 80 g/ha [5]: 80%; pest or weed control at 320 g/ha [6]: 90%
3 | CCn1nnnc1NC(=O)c1ccc(C(F)(F)F)c(C(=O)C2CCCCC2)c1SC [2-285] | 90% | 80 | – | 90% | 90% | 100% | 100% | 80% | 90% | 100% | 100% | Pre-emergence action against ECHCG (herbicidal activity) [8]: 80%; Pre-emergence action against AVEFA (herbicidal activity) [9]: 80%
4 | CCCn1nnnc1NC(=O)c1ccc(C)c(C(=O)CC)c1Cl [3-135] | – | 100 | 90 | 90% | 90% | 90% | 90% | 80% | 80% | – | – | Pre-emergence action against ALOMY (herbicidal activity in percent) [15]: 80%; Pre-emergence action against ECHCG (herbicidal activity) [8]: 90%; Post-emergence action against ECHCG (herbicidal action in percent) [16]: 80%
5 | CCn1nnnc1NC(=O)c1ccc(Cl)c(C(=O)C2CCCC2)c1Cl [2-281] | – | 100 | 100 | 90% | 90% | 90% | 90% | 80% | 90% | – | 100% | Post-emergence action against VIOTR [17]: 90; Post-emergence action against VERPE [5]: 80
6 | CCn1nnnc1NC(=O)c1ccc(Cl)c(C(=O)c2cccs2)c1Cl [2-282] | – | – | – | – | – | 80% | 80% | – | – | 100% | – | –
7 | CCCn1nnnc1NC(=O)c1ccc(C(F)(F)F)c(C(=O)C(C)C)c1Cl [3-140] | 100% | 90 | 90 | 80% | 100% | 100% | 100% | 90% | 100% | 100% | 100% | Pre-emergence action against ALOMY (herbicidal activity in percent) [15]: 90%; Post-emergence action against VIOTR [17]: 100; Pre-emergence action against ECHCG (herbicidal activity) [8]: 90%; SETVI (Table B8, pre-emergence herbicidal activity) [18]: 90%; Post-emergence action against ECHCG (herbicidal action in percent) [16]: 100%
8 | CCCn1nnnc1NC(=O)c1ccc(C(F)(F)F)c(C(=O)C2CCCCC2)c1Cl [3-155] | 80% | 80 | – | 90% | – | 100% | 90% | – | – | 100% | – | –
9 | CCn1nnnc1NC(=O)c1ccc(Cl)c(C(=O)c2ccc(OC)cc2)c1Cl [2-283] | 80% | – | – | – | – | 90% | – | – | – | – | – | –
10 | CCC(=O)c1c(C)ccc(C(=O)Nc2nnnn2C)c1Cl [1-135] | – | – | – | – | – | – | – | – | – | – | – | pest or weed control at 320 g/ha [7]: 90%; pest or weed control at 80 g/ha [2]: 100%; pest or weed control at 80 g/ha ([17]; Viola tricolor, 504 h): 90%; pest or weed control at 320 g/ha ([8]; Echinochloa crus-galli, 504 h, read-out: Pre-emergence action against ECHCG (herbicidal activity)): 90%; pest or weed control at 80 g/ha [4]: 90%; pest or weed control at 320 g/ha ([10]; Stellaria media, 504 h): 90%; pest or weed control at 320 g/ha [11]: 100%; pest or weed control at 80 g/ha ([12]; Tripleurospermum inodorum, 504 h, read-out: Post-emergence action against MATIN (herbicidal action in percent)): 90%; pest or weed control at 80 g/ha [5]: 80%; pest or weed control at 320 g/ha [6]: 90%; pest or weed control at 80 g/ha ([16]; Echinochloa crus-galli, 504 h, read-out: Post-emergence action against ECHCG (herbicidal action in percent)): 80%
11 | Cn1nnnc1NC(=O)c1ccc(Cl)c(C(=O)C2CCCC2)c1Cl [1-281] | – | 100 | 90 | 90% | 90% | 80% | 90% | 80% | 100% | – | 100% | Post-emergence action against VIOTR [17]: 100; Post-emergence action against VERPE [5]: 80
12 | Cn1nnnc1NC(=O)c1ccc(Cl)c(C(=O)c2cccs2)c1Cl [1-282] | – | – | – | – | – | – | – | – | – | – | – | pest or weed control at 320 g/ha [7]: 80%; pest or weed control at 80 g/ha [2]: 80%; pest or weed control at 80 g/ha [4]: 80%; pest or weed control at 320 g/ha [11]: 80%; pest or weed control at 320 g/ha ([13]; Abutilon theophrasti, 504 h, read-out: Pre-emergence action against ABUTH (herbicidal activity)): 90%
13 | COc1ccc(C(=O)c2c(Cl)ccc(C(=O)Nc3nnnn3C)c2Cl)cc1 [1-283] | – | 80 | – | – | – | – | – | – | – | 90% | – | –
14 | CCn1nnnc1NC(=O)c1ccc(C(F)(F)F)c(C(=O)C(F)(F)F)c1Cl [2-162] | – | 100 | 100 | 90% | – | 100% | 90% | – | – | 100% | 100% | Post-emergence action against VIOTR [17]: 100
15 | CCCn1nnnc1NC(=O)c1ccc(C(F)(F)F)c(C(=O)c2cc(F)cc(F)c2)c1Cl [3-282] | 80% | – | 90 | 80% | – | – | – | – | – | – | 90% | –
